Here are results for one compound from US8796031B2, “Microchip for platelet examination and platelet examination device using same” (Fujimori Kogyo Co., Ltd., priority 2010, dated 2014).

For this experiment, the system named is platelet aggregates. Briefly: Platelet function test: inflow pressure of blood through collagen-coated microchip with plasma-treated channel dividing section (Test Example 3). The class given is ex vivo. Conditions: blood collected before and after dosing of 100 mg of aspirin, hirudin 25 μg/ml anticoagulation, flow rate 27 μl/minute or 9 μl/minute. The protocol:
Blood was collected from a sample before and after dosing of 100 mg of aspirin, and each obtained blood was subjected to anticoagulation treatment with hirudin (25 μg/ml). The anticoagulated blood was subjected to flow through the channel of a microchip having a plasma-treated channel dividing section. More particularly, the reservoir 109 was filled with anticoagulated blood (before and after dosing of 100 mg of aspirin), and the pump 111 was filled with mineral oil. The pump 111 was connected to the reservoir 109, and a tip of the reservoir 109 was connected to the inlet 106 of the microchip 1. By injecting mineral oil from the pump 111 at a flow rate of 27 μl/minute or 9 μl/minute into the reservoir to overlay the mineral oil on the blood, the blood in the reservoir was pushed into the microchip 1 at the same flow rate, while the inflow pressure of the mineral oil (that is, the inflow pressure of the blood) was measured with a pressure sensor which is not shown.
In the case where the microchip having a plasma-untreated channel dividing section was used, the pressure increase was insufficient and the effect of aspirin could be therefore hardly identified. […]
Thus, the plasma irradiation increased the pressure to a higher level, and the stability of platelet aggregates under high-flow-rate conditions could be analyzed more accurately.

SMILES strings stand for the structures.

With `CC(=O)Oc1ccccc1C(=O)O` [aspirin], the “effect of aspirin on platelet aggregation (inflow pressure of blood)” value is “decrease the stability of formed platelet aggregates rather than an effect to decrease the formation rate of platelet aggregates”.
